Patent US10899988B1, “Octane hyperboosting in fuel blends” (National Technology & Engineering Solutions of Sandia, LLC, priority 2018, dated 2021)

Experiments:
[1] = ASTM D3703 test for hydroperoxides (peroxide number); format: physicochemical; conditions: silica column processed sample; testing range 0-50 mg/kg
Procedure: Potential polar contaminants, such as peroxides and hydrates, were removed from the neat prenol sample using a silica column following the protocol outlined by Mueller et al. (see, e.g., Mueller C J et al., “Diesel surrogate fuels for engine testing and chemical-kinetic modeling: compositions and properties,” Energy Fuels 2016; 30:1445-61). RON testing of this sample was conducted to confirm that these contaminants were not affecting the RON measurement. The sample containers were stored at 85% capacity and sealed with parafilm to limit peroxide formation after the silica column treatment; testing was performed within 10 days of the treatment. The peroxide number of the silica column treated sample (sample processed as described above) was tested by the ASTM […] method at SwRI. This method quantified the concentration hydroperoxides in a sample within the range of 0-50 mg/kg (ppm).

[2] = Co-optima fuel property database, cited from earlier work; for Water Solubility: measured at 25° C.

In the case of `CC(C)=CCO` [Prenol, 3-methyl-2-buten-1-ol], the “hydroperoxides (ASTM D3703)” value [1] is listed as “non-detect”, the “DH Vap” value [2] is listed as 512 kJ/kg and the “Water Solubility” value [2] is listed as 41 mg/mL.

For `CC(C)O` [Isopropanol], the “DH Vap” value [2] is given as 744 kJ/kg and the “Energy Density” value [2] is given as 24.1 mJ/L.

For `O=C1CCCC1` [Cyclopentanone], the “DH Vap” value [2] is listed as 504 kJ/kg, the “Energy Density” value [2] is listed as 30.2 mJ/L and the “Water Solubility” value [2] is listed as 61 mg/mL.

In the case of `CCO` [Ethanol], the “DH Vap” value [2] is listed as 919 kJ/kg and the “Energy Density” value [2] is listed as 20.2 mJ/L.

For n-propanol, the “DH Vap” value [2] is listed as 789 kJ/kg and the “Energy Density” value [2] is listed as 24.7 mJ/L.

For `CC(C)CO` [Isobutanol], the “DH Vap” value [2] is given as 685 kJ/kg and the “Energy Density” value [2] is given as 26.6 mJ/L.
